Data from US10792384B2, “Rolled fibrous structures comprising encapsulated malodor reduction compositions” (The Procter & Gamble Company, priority 2017, dated 2020).

Assay: Blocker Index (BI), expert graders smelling isovaleric acid swatches treated with test material
Conditions: test material 50 ppm on swatch with 20 μL 0.08% isovaleric acid, scale 0-3
Description: Blocker materials suitable for use in consumer products of the present invention are chosen for their ability to decrease malodor, while not interfering with perception of a fragrance. Material selection is done by assigning two indices to a test sample material from two reference scales in order to rank odor strengths. The two reference scales are the Fragrance Fidelity Index (FFI) scale and the Blocker Index (BI) scale. The FFI ranks the ability of the test sample material to impart a perceivable odor which could cause interference when combined with another fragrance and the BI ranks the ability of the test sample material to reduce malodor perception. The two methods for assigning the indices to a test sample on the FFI and the BI reference scales are given below.
The first step in the method for assigning a BI to a test sample material on the BI reference scale is to create the BI reference swatches. […] Fabric swatches for this test are white knit polycotton (4 inch×4 inch) swatches from EMC ordered as PC 50/50. The supplier is instructed to strip the swatches first, stripping involves washing twice with a fragrance-free detergent and rinsing three times.
The BI scale contains one clean swatch with no malodor applied. […] These solutions are pipetted to the middle of the swatches. […]

Compound `C=C/C(C)=C\CC=C(C)C` [Material 524] has a BI of 2.8.
